Results on eight molecules are retold here after patent US9006517B2, “Methods and compositions for plant pest control” (Monsanto Technology LLC, priority 2008, dated 2015).

Test [1] deals with M. incognita pre-parasitic J2 larvae. Description: In vitro nematicidal efficacy of methylketones on M. incognita J2 larvae. The class given is cell-based. As to conditions: Meloidogyne incognita, read-out: IC30 M. incognita vs. J2. How it is done: (§1) The example illustrates the surprising nematicidal efficacy of various methylketones. Methylketones of various chain lengths were tested in vitro against C. elegans L1 and L4 larvae and M. incognita pre-parasitic J2 larvae, the dispersal larval stage found in the soil. […] IC30 is defined as the concentration of the methylketone at which 30 percent of the nematodes are killed after an exposure of 4 hours for C. elegans and 24 hours for M. incognita.

Test [2] relates to C. elegans L1 and L4 larvae. Description: In vitro nematicidal efficacy of methylketones on C. elegans larvae. Format: cell-based. Particulars: Caenorhabditis elegans. As for the experimental part: as §1
The test system of test [3] is root knot nematode (M. incognita). In words: Greenhouse whole plant assay, root knot nematode infection of tomato in sand. As to conditions: for nematode control (in words): M. incognita, greenhouse, 40 and 8 kg/ha; for % Control: control of nematode-induced galling; for % Galled Roots: soil application before inoculation, harvest 21 days, no compound added: 60. The class given is in vivo. As for the experimental part:
(§2) Whole plant assays were used to determine the efficacy of the methylketones on the infection of soybean plants and tomato plants by nematodes, H. glycines and M. incognita, respectively. The seeds were planted in 100 percent sand in two-inch square plastic pots and grown to a sufficient size for treatment. […] Following methylketone treatment, nematodes were inoculated into each pot and for soybeans are then incubated for 28 days before harvest and for tomatoes incubated 21 days before harvest.
(§3) To each of four pots, five milliliters of the appropriate chemical solution is applied to the surface making sure to avoid contact with the base of the plant. Immediately following the chemical application, the pot surface is wetted sufficiently to water in the chemical. One milligram of chemical per four pots is approximately equivalent to one kilogram per hectare of chemical. A standard test uses four replications. For rates above 2 kg/ha, the desired amount of chemical is weighed into a 30 ml vial (example: 8 kg/ha rate=8 mg chemical in 30 ml vial). The chemical is dissolved in 2 ml of an appropriate solvent, generally acetone. For rates below 2 kg/ha, 2 milligrams of chemistry is weighed into the vial and dissolved in 2 ml of the solvent. The appropriate amount of chemical concentrate is then applied into a separate 30 ml vial and solvent is added to bring the volume to 2 ml (example 0.5 kg/ha=0.5 ml of concentrate+1.5 ml solvent). Each dissolved concentrate is then brought to a total of 20 milliliters using 0.05% Triton X-100 surfactant solution.
(§4) Nematode eggs, either SCN or RKN, are added to distilled water to create a concentration of 1000 vermiform eggs per […] of water. At least four hours after chemical treatment the eggs are applied to the treated pots plus non-treated check plants. A small hole about 1 cm deep is punched into the pot surface. One milliliter of the nematode egg slurry is applied into the hole. Immediately afterwards the hole is gently covered. Watering of the test plants is then restricted to a minimum volume needed to prevent wilting for a period of 24 hours. After the 24 hour restricted watering, normal sub-irrigation watering is done for the duration of the test.
The 2-undecanone, 2-tridecanone, and 2-pentadecanone are tested in greenhouse studies against M. incognita infection of tomato roots in sand. […] Shown in Table 2 is a high level of nematicidal activity of various methylketones observed against root knot nematode (M. incognita) inoculated into treated pots containing tomato plants. […] The listed kilograms/hectare (kg/ha) rating is based upon the surface area of the test pots; 1 kg/ha equates to about 1.65 mg compound per kilogram of soil in these assays.

Test [4] concerns soybean cyst nematode (H. glycines). Description: Greenhouse whole plant assay, soybean cyst nematode infection of soybean. Particulars: for % Control: relative to the non-treated; for #cysts/plant: soil drench prior to inoculation, harvest 28 days, no compound added: 49. The class given is in vivo. How it is done: as §2, §3, §4
2-tridecanone was also assayed in the greenhouse for control of soybean cyst nematode (H. glycines) in soybeans (Table 3). Nematode control (#cysts/plant) is observed at 40 kg/ha (96% control relative to the non-treated) and 8 kg/ha (80% control relative to the non-treated) when 2-tridecanone was applied as a soil drench prior to nematode inoculation.

[5] abbreviates: concentration at which 30 percent of the nematodes are killed, exposure 24 hours, J2 larvae.
The mark [6] stands for this setting: concentration at which 30 percent of the nematodes are killed, exposure 4 hours, L1 larvae, read-out: IC30 C. elegans vs. L1.
[7] abbreviates: concentration at which 30 percent of the nematodes are killed, exposure 4 hours, L4 larvae, read-out: IC30 C. elegans vs. L4.

≈ marks a conversion by molar mass, not a printed value. Like-named read-outs stand apart in the source and are kept apart here. Bounds are passed on as bounds.

Take `CCCCCCCCCCC(C)=O` [2-dodecanone]: the IC30 in test [1] (setting [5]) is 50 µg/mL (≈ 271 µM); in test [2] (setting [6]), 3.2 µg/mL (≈ 17.4 µM); in test [2] (setting [7]) it was 25 µg/mL (≈ 136 µM).
For the molecule `CCCCCCCCCCCCCC(C)=O` [2-pentadecanone], the “nematode control (in words)” value in test [3] is “demonstrated nematode control”. Moreover, the entries for the “% Control” value in test [3] (rate 8 kg/ha) and in test [3] (rate 40 kg/ha) were 25% and 37%, respectively. Besides, the figures for the “% Galled Roots” value in test [3] (rate 8 kg/ha) and in test [3] (rate 40 kg/ha) were 45% and 38%, respectively. For the same molecule, the concentration for an effect of 30% (IC30) in test [1] (setting [5]) is 400 µg/mL (≈ 1770 µM); in test [2] (setting [6]), 12.5 µg/mL (≈ 55.2 µM); in test [2] (setting [7]), over 100 µg/mL.
Take `CCCCCCCCC(C)=O` [2-decanone]: the IC30 in test [1] (setting [5]) was 25 µg/mL (≈ 160 µM); in test [2] (setting [6]), 6.3 µg/mL (≈ 40.3 µM); in test [2] (setting [7]), over 400 µg/mL.
For the molecule `CCCCCCCCCCCC(C)=O` [2-tridecanone], the “% Control” value in test [4] (rate 8 kg/ha) came to 80%; in test [4] (rate 40 kg/ha) it was 96%; in test [3] (rate 8 kg/ha), 97%; in test [3] (rate 40 kg/ha), 100%. In addition, the “#cysts/plant” value amounted to 10 in test [4] (rate 8 kg/ha) and 2 in test [4] (rate 40 kg/ha). Further, the “% Galled Roots” value in test [3] (rate 8 kg/ha) was 2%; in test [3] (rate 40 kg/ha), 0%. Further, the 30% effect concentration (IC30) in test [1] (setting [5]) was 50 µg/mL (≈ 252 µM); in test [2] (setting [6]) it was 3.2 µg/mL (≈ 16.1 µM); in test [2] (setting [7]), 12.5 µg/mL (≈ 63 µM).
With `CCCCCCCC(C)=O` [2-nonanone], the IC30 was 200 µg/mL (≈ 1410 µM) in test [1] (setting [5]), 12.5 µg/mL (≈ 87.9 µM) in test [2] (setting [6]) and over 400 µg/mL in test [2] (setting [7]).
As for `CCCCCC(C)=O` [2-heptanone], the IC30 in test [1] (setting [5]) was 400 µg/mL (≈ 3500 µM); in test [2] (setting [6]) it was over 400 µg/mL; in test [2] (setting [7]) it was over 400 µg/mL.
With `CCCCCCCCCCCCC(C)=O` [2-tetradecanone], the concentration for an effect of 30% (IC30) in test [1] (setting [5]) is 25 µg/mL (≈ 118 µM); in test [2] (setting [6]), 3.2 µg/mL (≈ 15.1 µM); in test [2] (setting [7]), over 100 µg/mL.
For the molecule `CCCCCCCCCC(C)=O` [2-undecanone], in test [3], the “nematode control (in words)” value is reported as “demonstrated nematode control”. Further, the “% Control” value in test [3] (rate 8 kg/ha) was 35%; in test [3] (rate 40 kg/ha), 65%. The “% Galled Roots” value in test [3] (rate 8 kg/ha) is given as 39%; in test [3] (rate 40 kg/ha), 21%. For the same molecule, the concentration for an effect of 30% (IC30) in test [1] (24 h) was found to be 50 µg/mL (≈ 294 µM); in test [2] (4 h, read-out: IC30 C. elegans vs. L1), 6.3 µg/mL (≈ 37 µM); in test [2] (4 h, read-out: IC30 C. elegans vs. L4), 25 µg/mL (≈ 147 µM).
